target: T1, chimeric human H3 receptor (Homo sapiens, UniProt Q9Y5N1); assay: Chimeric human H3 receptor screening GTP binding assay (inhibition of histamine-stimulated GTP-gamma35S binding, Example 8); format: biochemical; settings: 1 h; assay of Example 8; symbol "!" in column headed Ki; read-out: percent inhibition of agonist-induced GTP-gammaS binding to H3
T1 construct: rat Galpha-i2 (Gnai2, rat); made in house; host or cells: Sf9 insect cells (baculovirus); P2 membranes
Procedure, shortened: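 Sf9 membranes co-expressing chimeric human H3 receptor and heterotrimeric G-protein (35 μg protein) incubated 60 min at room temperature with 4 μM compound, 1 μM histamine and 125 pM GTP-gamma35S in pH 7.4 buffer with 10 μM GDP. Filter-bound radioactivity, nonspecific (10 μM GTP-gammaS) subtracted, reported as % inhibition of histamine signal.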

T1 sequence (Q9Y5N1 with tags, fused parts or gaps): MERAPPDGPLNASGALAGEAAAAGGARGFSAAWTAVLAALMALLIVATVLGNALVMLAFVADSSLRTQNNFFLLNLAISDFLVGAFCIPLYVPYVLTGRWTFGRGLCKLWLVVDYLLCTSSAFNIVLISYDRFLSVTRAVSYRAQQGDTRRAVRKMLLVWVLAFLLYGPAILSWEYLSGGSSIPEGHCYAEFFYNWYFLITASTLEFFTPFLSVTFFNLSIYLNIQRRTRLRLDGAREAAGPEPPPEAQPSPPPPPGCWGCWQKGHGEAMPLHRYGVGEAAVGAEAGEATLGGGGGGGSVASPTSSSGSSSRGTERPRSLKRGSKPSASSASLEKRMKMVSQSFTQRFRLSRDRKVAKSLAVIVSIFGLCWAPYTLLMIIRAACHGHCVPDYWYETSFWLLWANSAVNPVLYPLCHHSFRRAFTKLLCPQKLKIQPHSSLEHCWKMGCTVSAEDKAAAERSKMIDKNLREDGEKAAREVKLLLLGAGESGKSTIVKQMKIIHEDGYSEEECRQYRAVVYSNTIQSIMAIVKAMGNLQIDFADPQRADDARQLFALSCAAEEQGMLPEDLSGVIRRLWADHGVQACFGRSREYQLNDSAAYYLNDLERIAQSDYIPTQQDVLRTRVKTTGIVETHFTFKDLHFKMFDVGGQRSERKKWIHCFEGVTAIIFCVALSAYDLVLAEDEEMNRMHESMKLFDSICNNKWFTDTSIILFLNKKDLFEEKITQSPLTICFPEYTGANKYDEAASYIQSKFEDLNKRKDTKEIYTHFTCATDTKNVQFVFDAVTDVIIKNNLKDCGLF

inhibition at 4 µM [%] | Structure (SMILES)
≥ 90 | CC(C)CN1CCc2cnc(N3CCN(C4CCC4)CC3)nc2CC1 [Compound 251, 2-(4-cyclobutylpiperazin-1-yl)-7-isobutyl-6,7,8,9-tetrahydro-5H-pyrimido[4,5-d]azepine]
≥ 90 | Cc1ccc(CN2CCc3cnc(N4CCN(C5CCC5)CC4)nc3CC2)cc1C [Compound 257, 2-(4-cyclobutylpiperazin-1-yl)-7-(3,4-dimethylbenzyl)-6,7,8,9-tetrahydro-5H-pyrimido[4,5-d]azepine]
≥ 90 | c1cc2c(cc1CN1CCc3cnc(N4CCN(C5CCC5)CC4)nc3CC1)OCCO2 [Compound 258, 2-(4-cyclobutylpiperazin-1-yl)-7-(2,3-dihydro-1,4-benzodioxin-6-ylmethyl)-6,7,8,9-tetrahydro-5H-pyrimido[4,5-d]azepine]
≥ 90 | c1ccc2nc(CN3CCc4cnc(N5CCN(C6CCC6)CC5)nc4CC3)ccc2c1 [Compound 259, 2-(4-cyclobutylpiperazin-1-yl)-7-(quinolin-2-ylmethyl)-6,7,8,9-tetrahydro-5H-pyrimido[4,5-d]azepine]
≥ 90 | COc1cccc(CN2CCc3cnc(N4CCN(C5CCC5)CC4)nc3CC2)c1OC [Compound 260, 2-(4-cyclobutylpiperazin-1-yl)-7-(2,3-dimethoxybenzyl)-6,7,8,9-tetrahydro-5H-pyrimido[4,5-d]azepine]
≥ 90 | COc1ccc(OC)c(CN2CCc3cnc(N4CCN(C5CCC5)CC4)nc3CC2)c1 [Compound 261, 2-(4-cyclobutylpiperazin-1-yl)-7-(2,5-dimethoxybenzyl)-6,7,8,9-tetrahydro-5H-pyrimido[4,5-d]azepine]
≥ 90 | Cc1c(F)cccc1CN1CCc2cnc(N3CCN(C4CCC4)CC3)nc2CC1 [Compound 264, 2-(4-cyclobutylpiperazin-1-yl)-7-(3-fluoro-2-methylbenzyl)-6,7,8,9-tetrahydro-5H-pyrimido[4,5-d]azepine]
≥ 90 | Clc1ccccc1CN1CCc2cnc(N3CCN(C4CCC4)CC3)nc2CC1 [Compound 265, 7-(2-chlorobenzyl)-2-(4-cyclobutylpiperazin-1-yl)-6,7,8,9-tetrahydro-5H-pyrimido[4,5-d]azepine]
≥ 90 | Clc1ccc(CN2CCc3cnc(N4CCN(C5CCC5)CC4)nc3CC2)c(Cl)c1 [Compound 266, 2-(4-cyclobutylpiperazin-1-yl)-7-(2,4-dichlorobenzyl)-6,7,8,9-tetrahydro-5H-pyrimido[4,5-d]azepine]
≥ 90 | COc1cccc(CC(=O)N2CCc3cnc(N4CCN(C5CCC5)CC4)nc3CC2)c1 [Compound 273, 2-(4-cyclobutylpiperazin-1-yl)-7-[(3-methoxyphenyl)acetyl]-6,7,8,9-tetrahydro-5H-pyrimido[4,5-d]azepine]
≥ 90 | COc1ccc(CC(=O)N2CCc3cnc(N4CCN(C5CCC5)CC4)nc3CC2)cc1 [Compound 274, 2-(4-cyclobutylpiperazin-1-yl)-7-[(4-methoxyphenyl)acetyl]-6,7,8,9-tetrahydro-5H-pyrimido[4,5-d]azepine]
≥ 90 | CCOc1ccc(CC(=O)N2CCc3cnc(N4CCN(C5CCC5)CC4)nc3CC2)cc1OC [Compound 275, 2-(4-cyclobutylpiperazin-1-yl)-7-[(4-ethoxy-3-methoxyphenyl)acetyl]-6,7,8,9-tetrahydro-5H-pyrimido[4,5-d]azepine]
≥ 90 | COc1cc(CC(=O)N2CCc3cnc(N4CCN(C5CCC5)CC4)nc3CC2)cc(OC)c1OC [Compound 276, 2-(4-cyclobutylpiperazin-1-yl)-7-[(3,4,5-trimethoxyphenyl)acetyl]-6,7,8,9-tetrahydro-5H-pyrimido[4,5-d]azepine]
≥ 90 | COc1cc(CC(=O)N2CCc3cnc(N4CCN(C5CCC5)CC4)nc3CC2)cc(OC)c1 [Compound 280, 2-(4-cyclobutylpiperazin-1-yl)-7-[(3,5-dimethoxyphenyl)acetyl]-6,7,8,9-tetrahydro-5H-pyrimido[4,5-d]azepine]
≥ 90 | COc1ccc(CC(=O)N2CCc3cnc(N4CCN(C5CCC5)CC4)nc3CC2)cc1OC [Compound 281, 2-(4-cyclobutylpiperazin-1-yl)-7-[(3,4-dimethoxyphenyl)acetyl]-6,7,8,9-tetrahydro-5H-pyrimido[4,5-d]azepine]

Second part, the compound before the results:

Structure (SMILES) | inhibition at 4 µM [%]
CCC(C)CN1CCc2cnc(N3CCN(C4CCC4)CC3)nc2CC1 (stereo not shown) [Compound 252, 2-(4-cyclobutylpiperazin-1-yl)-7-(2-methylbutyl)-6,7,8,9-tetrahydro-5H-pyrimido[4,5-d]azepine] | ≥ 90
CCC(CC)CN1CCc2cnc(N3CCN(C4CCC4)CC3)nc2CC1 [Compound 253, 2-(4-cyclobutylpiperazin-1-yl)-7-(2-ethylbutyl)-6,7,8,9-tetrahydro-5H-pyrimido[4,5-d]azepine] | ≥ 90
c1nc(N2CCN(C3CCC3)CC2)nc2c1CCN(CC1CC1)CC2 [Compound 254, 2-(4-cyclobutylpiperazin-1-yl)-7-(cyclopropylmethyl)-6,7,8,9-tetrahydro-5H-pyrimido[4,5-d]azepine] | ≥ 90
CCCC(C)CN1CCc2cnc(N3CCN(C4CCC4)CC3)nc2CC1 (stereo not shown) [Compound 255, 2-(4-cyclobutylpiperazin-1-yl)-7-(2-methylpentyl)-6,7,8,9-tetrahydro-5H-pyrimido[4,5-d]azepine] | ≥ 90
c1nc(N2CCN(C3CCC3)CC2)nc2c1CCN(CC1CCOC1)CC2 (stereo not shown) [Compound 256, 2-(4-cyclobutylpiperazin-1-yl)-7-(tetrahydrofuran-3-ylmethyl)-6,7,8,9-tetrahydro-5H-pyrimido[4,5-d]azepine] | ≥ 90
CCn1cncc1CN1CCc2cnc(N3CCN(C4CCC4)CC3)nc2CC1 [Compound 262, 2-(4-cyclobutylpiperazin-1-yl)-7-[(1-ethyl-1H-imidazol-5-yl)methyl]-6,7,8,9-tetrahydro-5H-pyrimido[4,5-d]azepine] | ≥ 90
c1cc(N2CCCC2)ncc1CN1CCc2cnc(N3CCN(C4CCC4)CC3)nc2CC1 [Compound 263, 2-(4-cyclobutylpiperazin-1-yl)-7-[(6-pyrrolidin-1-ylpyridin-3-yl)methyl]-6,7,8,9-tetrahydro-5H-pyrimido[4,5-d]azepine] | ≥ 90
c1cc(N2CCCC2)ccc1CN1CCc2cnc(N3CCN(C4CCC4)CC3)nc2CC1 [Compound 267, 2-(4-cyclobutylpiperazin-1-yl)-7-(4-pyrrolidin-1-ylbenzyl)-6,7,8,9-tetrahydro-5H-pyrimido[4,5-d]azepine] | ≥ 90
N#Cc1ccc(C(=O)N2CCc3cnc(N4CCN(C5CCC5)CC4)nc3CC2)cc1 [Compound 268, 4-{[2-(4-cyclobutylpiperazin-1-yl)-5,6,8,9-tetrahydro-7H-pyrimido[4,5-d]azepin-7-yl]carbonyl}benzonitrile] | ≥ 90
O=C(c1ccc(C(F)(F)F)cc1)N1CCc2cnc(N3CCN(C4CCC4)CC3)nc2CC1 [Compound 269, 2-(4-cyclobutylpiperazin-1-yl)-7-[4-(trifluoromethyl)benzoyl]-6,7,8,9-tetrahydro-5H-pyrimido[4,5-d]azepine] | ≥ 90
COc1nc(N2CCN(C3CCC3)CC2)nc2c1CCN(C(=O)c1ccccc1)CC2 [Compound 270, 7-benzoyl-2-(4-cyclobutylpiperazin-1-yl)-4-methoxy-6,7,8,9-tetrahydro-5H-pyrimido[4,5-d]azepine] | ≥ 90
c1nc2c(c(N3CCN(C4CCC4)CC3)n1)CCN(CC1CCOCC1)CC2 [Compound 271, 4-(4-cyclobutylpiperazin-1-yl)-7-(tetrahydro-2H-pyran-4-ylmethyl)-6,7,8,9-tetrahydro-5H-pyrimido[4,5-d]azepine] | ≥ 90
c1nc(N2CCN(C3CCC3)CC2)nc2c1CCN(CC1CCOCC1)CC2 [Compound 272, 2-(4-cyclobutylpiperazin-1-yl)-7-(tetrahydro-2H-pyran-4-ylmethyl)-6,7,8,9-tetrahydro-5H-pyrimido[4,5-d]azepine] | ≥ 90
O=C(Cc1ccc2c(c1)OCO2)N1CCc2cnc(N3CCN(C4CCC4)CC3)nc2CC1 [Compound 277, 7-(1,3-benzodioxol-5-ylacetyl)-2-(4-cyclobutylpiperazin-1-yl)-6,7,8,9-tetrahydro-5H-pyrimido[4,5-d]azepine] | ≥ 90
O=C(Cc1ccc(OC(F)(F)F)cc1)N1CCc2cnc(N3CCN(C4CCC4)CC3)nc2CC1 [Compound 278, 2-(4-cyclobutylpiperazin-1-yl)-7-{[4-(trifluoromethoxy)phenyl]acetyl}-6,7,8,9-tetrahydro-5H-pyrimido[4,5-d]azepine] | ≥ 90
O=C(Cc1cccc(OC(F)(F)F)c1)N1CCc2cnc(N3CCN(C4CCC4)CC3)nc2CC1 [Compound 279, 2-(4-cyclobutylpiperazin-1-yl)-7-{[3-(trifluoromethoxy)phenyl]acetyl}-6,7,8,9-tetrahydro-5H-pyrimido[4,5-d]azepine] | ≥ 90
O=C(Cc1cccc(Oc2ccccc2)c1)N1CCc2cnc(N3CCN(C4CCC4)CC3)nc2CC1 [Compound 282, 2-(4-cyclobutylpiperazin-1-yl)-7-[(3-phenoxyphenyl)acetyl]-6,7,8,9-tetrahydro-5H-pyrimido[4,5-d]azepine] | ≥ 90
O=C(Cc1ccc(Oc2ccccc2)cc1)N1CCc2cnc(N3CCN(C4CCC4)CC3)nc2CC1 [Compound 283, 2-(4-cyclobutylpiperazin-1-yl)-7-[(4-phenoxyphenyl)acetyl]-6,7,8,9-tetrahydro-5H-pyrimido[4,5-d]azepine] | ≥ 90
O=C(Cc1cccc(Cl)c1)N1CCc2cnc(N3CCN(C4CCC4)CC3)nc2CC1 [Compound 284, 7-[(3-chlorophenyl)acetyl]-2-(4-cyclobutylpiperazin-1-yl)-6,7,8,9-tetrahydro-5H-pyrimido[4,5-d]azepine] | ≥ 90

Reference: US20080051387A1, “TETRAHYDROPYRIDO[3,4-D]PYRIMIDINES AND RELATED ANALOGUES” (priority 2006, published 2008)
